Source: US8614227B2, “Salt and solvates of a tetrahydroisoquinoline derivative” (Spinifex Pharmaceuticals Pty Ltd, priority 2010, dated 2013)
Read-outs that look alike come from different tables or passages of the source.

Legend:
in vivo = settings: male, beagle, dog, po, 10 mg/kg
Experimental: (§1) The study was designed to compare the PK profiles of the following four forms of Compound 1 administered as single oral capsules in fasted state. […] There was a washout period of 4 days between dosing. The blood samples were collected from each animal at predetermined times on the study Days 1, 4, 8 and 11. The plasma was analyzed for Compound 1 by a validated HPLC-MS/MS assay.
(§2) Descriptive PK parameters were determined by standard model independent methods (Gibaldi and Perrier, 1982) based on the individual plasma concentration-time data. Plasma concentrations were rounded to 3 significant figures. Plasma samples with concentrations below the quantifiable assay limit (BQL<2.00 ng/mL) were assigned values of zero for mean calculations. For PK calculations, BQL was set to zero from the pre-dose time up to the time of the first quantifiable concentration and thereafter was set as missing. Nominal time points were used for all calculations. • Cmax is the observed maximum plasma concentration after dosing. • Tmax is the time to reach Cmax. • T1/2 is apparent half-life calculated by ln(2)/λ where λ is the rate constant fix the log-linear portion of the terminal phase. A minimum of three values in the post-distribution phase of the plasma concentration-time curve is required for calculation of X. • AUC(0-T) is the area under the plasma concentration-time curve from time zero to the time of the last measurable plasma concentration determined using the linear trapezoidal rule. • AUC(0-inf) is the area under the plasma concentration-time curve from time zero to infinity. It is calculated by summing AUC(0-T) and the extrapolated area from the T to infinity.
(§3) PK analyses were performed by noncompartmental analysis using model 200 in WinNonlin Professional 6.1 (Pharsight Corp., Mountain View, Calif.).

pKa of Compound 1 = assay type: physicochemical
[1] = dog, in vivo, po, 10 mg/kg
Experimental: as §1, §2, §3

[2] = Gravimetric vapour sorption (GVS); assay type: physicochemical
Experimental: Sorption isotherms were obtained using a Hiden IGASorp moisture sorption analyzer, controlled by CFRSorp software. The sample temperature was maintained at 25° C. by a Huber re-circulating water bath. The humidity was controlled by mixing streams of dry and wet nitrogen, with a total flow rate of 250 mL·min^−1. The relative humidity was measured by a calibrated Vaisala RH probe (dynamic range of 0-95% RH), located near the sample. The weight change, (mass relaxation) of the sample as a function of % RH was constantly monitored by the microbalance (accuracy ±0.001 mg).
Typically 10-20 mg of sample was placed in a tared mesh stainless steel basket under ambient conditions. The sample was loaded and unloaded at 40% RH and 25° C. (typical room conditions).
A moisture sorption isotherm was performed as outlined below (2 scans giving 1 complete cycle). The standard isotherm was performed at 25° C. at 10% RH intervals over a 0-90% RH range.
The software uses a least squares minimization procedure together with a model of the mass relaxation, to predict an asymptotic value. The measured mass relaxation value must be within 5% of that predicted by the software, before the next RH value is selected. The minimum equilibration time was set to 1 hour and the maximum to 4 hours.
The sample was recovered after completion of the isotherm and re-analyzed by XRPD.

[3] = Storage of amine salts at elevated humidity (deliquescence); assay type: physicochemical
Experimental: The tromethamine salt deliquesced at 25° C./94% RH. As a result, neither of these amine salts were suitable for pharmaceutical development.

COc1ccc2c(c1OCc1ccccc1)C[C@@H](C(=O)O)N(C(=O)C(c1ccccc1)c1ccccc1)C2 [Compound 1, (S)-2-(diphenylacetyl)-1,2,3,4-tetrahydro-6-methoxy-5-(phenylmethoxy)-3-isoquinoline carboxylic acid]
AUC(0-inf) (in vivo; Mean AUC(0-inf)): 680 ± 412 ng·h/mL | half-life (in vivo; Mean harmonic T1/2): 127 ± 6.9 min | half-life (in vivo; T1/2): 131 min | Tmax (in vivo; Tmax): 1 h | Cmax (in vivo; mean Cmax): 294 ± 238 ng/mL | Tmax (in vivo; median Tmax): 2 h | pKa (pKa of Compound 1): ~3.86 | Plasma concentration of Compound 1, 0.25 h [1]: BQL | Plasma concentration of Compound 1, 0.5 h [1]: BQL | Plasma concentration of Compound 1, 0.75 h [1]: BQL | Plasma concentration of Compound 1, 12 h [1]: BQL | Plasma concentration of Compound 1, 24 h [1]: BQL | Plasma concentration of Compound 1, Predose [1]: BQL | Plasma concentration of Compound 1, Predose ([1]; male, beagle): 0.00 ng/mL | Plasma concentration of Compound 1, 24 h ([1]; male, beagle, 24 h): 0.00 ng/mL

COc1ccc2c(c1OCc1ccccc1)C[C@@H](C(=O)[O-])N(C(=O)C(c1ccccc1)c1ccccc1)C2.[Na+] [material from acetonitrile (MeCN)]
GVS weight gained by 40% RH ([2]; from 0% RH to 40% RH): 6% | GVS weight change when taken up to 90% RH ([2]; from 40% RH to 90% RH, 25° C.): about 17% | GVS total weight drop ([2]; from 90% RH to 0% RH): 19% | GVS weight at 0% RH ([2]; taken down to 0% RH, 25° C.): −2%

COc1ccc2c(c1OCc1ccccc1)C[C@@H](C(=O)O)N(C(=O)C(c1ccccc1)c1ccccc1)C2.NC(CO)(CO)CO [tromethamine salt]
behaviour on storage at 25° C./94% RH [3]: deliquesced
